From patent US7462600B2, “Macrolides” (Pfizer Inc, priority 2004, dated 2008)
≈ marks a conversion by molar mass, not a printed value.

Key:
Format in all cases: cell-based
[1] = tested on: Streptococcus pyogenes 1079; test: MIC, microtiter broth dilution (NCCLS M100-S14), S. pyogenes 1079 (ermB); details: S. pyogenes 1079 (ermB)
In short: (§1)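 Microtiter broth dilution; interpretation per NCCLS M100-S14; endpoint = MIC. Stock: 40 mg/ml in DMSO.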

[2] = tested on: Streptococcus pneumoniae 1175; details: S. pneumoniae 1175 (mefA); microtiter broth dilution
In short: as §1

[3] = tested on: Streptococcus pneumoniae 1095; details: S. pneumoniae 1095 (ermB); microtiter broth dilution
In short: as §1

[4] = tested on: Haemophilus influenzae 1218; test: MIC, microtiter broth dilution (NCCLS M100-S14), H. influenzae 1218 (susceptible); details: H. influenzae 1218 (susceptible)
In short: as §1

[5] = tested on: Streptococcus pneumoniae 1016; test: MIC, microtiter broth dilution (NCCLS M100-S14), S. pneumoniae 1016 (susceptible); details: S. pneumoniae 1016 (susceptible)
In short: as §1

| Structure (SMILES) | MIC S. pyogenes 1079 [1] [µg/mL] | MIC S. pneumo. 1175 [2] [µg/mL] | MIC S. pneumo. 1095 [3] [µg/mL] | MIC H. influenzae 1218 [4] [µg/mL] | MIC S. pneumo. 1016 [5] [µg/mL] |
| --- | --- | --- | --- | --- | --- |
| CCC1OC(=O)C(C)C(=O)C(C)C(OC2OC(C)CC(N(C)C)C2O)C(C)(OC)CC(C)C(=O)C(C)C2N(CC3CCCN3C(=O)c3ccnc4ncsc34)C(=O)OC12C (stereo not shown) [10.44] | >64.00 | 0.12 (≈ 0.14 µM) | <0.06 | 1 (≈ 1.17 µM) | <0.06 |
| CCC1OC(=O)C(C)C(=O)C(C)C(OC2OC(C)CC(N(C)C)C2O)C(C)(OC)CC(C)C(=O)C(C)C2N(CC3CCCN3C(=O)c3cnn4ccccc34)C(=O)OC12C (stereo not shown) [10.45] | >64.00 | <0.06 | <0.06 | 1 (≈ 1.19 µM) | <0.06 |
| CCC1OC(=O)C(C)C(=O)C(C)C(OC2OC(C)CC(N(C)C)C2O)C(C)(OC)CC(C)C(=O)C(C)C2N(CC3CCCN3S(=O)(=O)c3cccc4cnccc34)C(=O)OC12C (stereo not shown) [10.46] | 64 (≈ 72.1 µM) | <0.06 | <0.06 | 1 (≈ 1.13 µM) | <0.06 |
| CCC1OC(=O)C(C)C(=O)C(C)C(OC2OC(C)CC(N(C)C)C2O)C(C)(OC)CC(C)C(=O)C(C)C2N(CC3CCCN3S(=O)(=O)c3cccc4cccnc34)C(=O)OC12C (stereo not shown) [10.47] | 64 (≈ 72.1 µM) | <0.06 | 0.12 (≈ 0.135 µM) | 2 (≈ 2.25 µM) | <0.06 |
| CCC1OC(=O)C(C)C(=O)C(C)C(OC2OC(C)CC(N(C)C)C2O)C(C)(OC)CC(C)C(=O)C(C)C2N(CC3CCCN3C(=O)c3ccc(C)[nH]c3=O)C(=O)OC12C (stereo not shown) [10.48] | >64.00 | 0.5 (≈ 0.602 µM) | 4 (≈ 4.81 µM) | 1 (≈ 1.2 µM) | <0.06 |
| CCC1OC(=O)C(C)C(=O)C(C)C(OC2OC(C)CC(N(C)C)C2O)C(C)(OC)CC(C)C(=O)C(C)C2N(CC3CCCN3C(=O)c3ccc4cnccc4n3)C(=O)OC12C (stereo not shown) [10.49] | >64.00 | 2 (≈ 2.35 µM) | 2 (≈ 2.35 µM) | 8 (≈ 9.39 µM) | <0.06 |
| CCC1OC(=O)C(C)C(=O)C(C)C(OC2OC(C)CC(N(C)C)C2O)C(C)(OC)CC(C)C(=O)C(C)C2N(CC3CCCN3C(=O)c3ccnc4[nH]cnc34)C(=O)OC12C (stereo not shown) [10.50] | >64.00 | 2 (≈ 2.38 µM) | 0.5 (≈ 0.595 µM) | 8 (≈ 9.51 µM) | <0.06 |
| CCC1OC(=O)C(C)C(=O)C(C)C(OC2OC(C)CC(N(C)C)C2O)C(C)(OC)CC(C)C(=O)C(C)C2N(CC3CCCN3C(=O)c3cnn4cccnc34)C(=O)OC12C (stereo not shown) [10.51] | >64.00 | 0.5 (≈ 0.595 µM) | <0.06 | 1 (≈ 1.19 µM) | <0.06 |
| CCC1OC(=O)C(C)C(=O)C(C)C(OC2OC(C)CC(N(C)C)C2O)C(C)(OC)CC(C)C(=O)C(C)C2N(CC3CCCN3C(=O)c3cccc4[nH]cnc34)C(=O)OC12C (stereo not shown) [10.52] | 64 (≈ 76.2 µM) | <0.06 | <0.06 | 0.25 (≈ 0.298 µM) | <0.06 |
| CCC1OC(=O)C(C)C(=O)C(C)C(OC2OC(C)CC(N(C)C)C2O)C(C)(OC)CC(C)C(=O)C(C)C2N(CC3CCCN3C(=O)c3cc4ncccn4n3)C(=O)OC12C (stereo not shown) [10.53] | >64.00 | 0.12 (≈ 0.143 µM) | <0.06 | 1 (≈ 1.19 µM) | <0.06 |
| CCC1OC(=O)C(C)C(=O)C(C)C(OC2OC(C)CC(N(C)C)C2O)C(C)(OC)CC(C)C(=O)C(C)C2N(CC3CCCN3C(=O)c3cn4ccccc4n3)C(=O)OC12C (stereo not shown) [10.54] | 64 (≈ 76.2 µM) | 0.25 (≈ 0.298 µM) | <0.06 | 1 (≈ 1.19 µM) | <0.06 |
| CCC1OC(=O)C(C)C(=O)C(C)C(OC2OC(C)CC(N(C)C)C2O)C(C)(OC)CC(C)C(=O)C(C)C2N(CC3CCCN3C(=O)c3cc4cccnc4[nH]3)C(=O)OC12C (stereo not shown) [10.55] | 32 (≈ 38.1 µM) | <0.06 | <0.06 | 1 (≈ 1.19 µM) | <0.06 |
| CCC1OC(=O)C(C)C(=O)C(C)C(OC2OC(C)CC(N(C)C)C2O)C(C)(OC)CC(C)C(=O)C(C)C2N(CC3CCN(Cc4cnc5ccccc5c4)C3)C(=O)OC12C (stereo not shown) [11.03] | 64 (≈ 76.5 µM) | 0.5 (≈ 0.597 µM) | <0.06 | 2 (≈ 2.39 µM) | <0.06 |
| CCC1OC(=O)C(C)C(=O)C(C)C(OC2OC(C)CC(N(C)C)C2O)C(C)(OC)CC(C)C(=O)C(C)C2N(CC3CCN(Cc4ccc5ccccc5n4)C3)C(=O)OC12C (stereo not shown) [11.04] | 64 (≈ 76.5 µM) | 0.12 (≈ 0.143 µM) | <0.06 | 1 (≈ 1.19 µM) | <0.06 |
| CCC1OC(=O)C(C)C(=O)C(C)C(OC2OC(C)CC(N(C)C)C2O)C(C)(OC)CC(C)C(=O)C(C)C2N(CC3CCN(Cc4nc5ccccc5n4C)C3)C(=O)OC12C (stereo not shown) [11.06] | >64.00 | 2 (≈ 2.38 µM) | 2 (≈ 2.38 µM) | 4 (≈ 4.76 µM) | <0.06 |
| CCC1OC(=O)C(C)C(=O)C(C)C(OC2OC(C)CC(N(C)C)C2O)C(C)(OC)CC(C)C(=O)C(C)C2N(CC3CCN(Cc4ccc(OC)nc4)C3)C(=O)OC12C (stereo not shown) [11.07] | 16 (≈ 19.6 µM) | 0.25 (≈ 0.306 µM) | <0.06 | 1 (≈ 1.22 µM) | <0.06 |
| CCC1OC(=O)C(C)C(=O)C(C)C(OC2OC(C)CC(N(C)C)C2O)C(C)(OC)CC(C)C(=O)C(C)C2N(CC3CCN(Cc4cccc(OC)n4)C3)C(=O)OC12C (stereo not shown) [11.08] | >64.00 | 0.25 (≈ 0.306 µM) | <0.06 | 0.5 (≈ 0.612 µM) | <0.06 |
| CCC1OC(=O)C(C)C(=O)C(C)C(OC2OC(C)CC(N(C)C)C2O)C(C)(OC)CC(C)C(=O)C(C)C2N(CC3CCN(Cc4cccnc4OC)C3)C(=O)OC12C (stereo not shown) [11.09] | >64.00 | 16 (≈ 19.6 µM) | 4 (≈ 4.9 µM) | 4 (≈ 4.9 µM) | <0.06 |
| CCC1OC(=O)C(C)C(=O)C(C)C(OC2OC(C)CC(N(C)C)C2O)C(C)(OC)CC(C)C(=O)C(C)C2N(CC3CCN(Cc4nccc5ccccc45)C3)C(=O)OC12C (stereo not shown) [11.10] | 64 (≈ 76.5 µM) | <0.06 | <0.06 | 0.12 (≈ 0.143 µM) | <0.06 |
| CCC1OC(=O)C(C)C(=O)C(C)C(OC2OC(C)CC(N(C)C)C2O)C(C)(OC)CC(C)C(=O)C(C)C2N(CC3CCN(Cc4cnn(-c5ccccn5)c4)C3)C(=O)OC12C (stereo not shown) [11.14] | 32 (≈ 37.5 µM) | 0.25 (≈ 0.293 µM) | 0.25 (≈ 0.293 µM) | 2 (≈ 2.34 µM) | <0.06 |
| CCC1OC(=O)C(C)C(=O)C(C)C(OC2OC(C)CC(N(C)C)C2O)C(C)(OC)CC(C)C(=O)C(C)C2N(CC3CCN(Cc4cnn(-c5cccnc5)c4)C3)C(=O)OC12C (stereo not shown) [11.15] | 64 (≈ 75 µM) | 0.5 (≈ 0.586 µM) | <0.06 | 2 (≈ 2.34 µM) | <0.06 |
| CCC1OC(=O)C(C)C(=O)C(C)C(OC2OC(C)CC(N(C)C)C2O)C(C)(OC)CC(C)C(=O)C(C)C2N(CC3CCN(C(=O)c4cc5ccccn5n4)C3)C(=O)OC12C (stereo not shown) [11.16] | >64.00 | 0.5 (≈ 0.595 µM) | 8 (≈ 9.52 µM) | 8 (≈ 9.52 µM) | <0.06 |
| CCC1OC(=O)C(C)C(=O)C(C)C(OC2OC(C)CC(N(C)C)C2O)C(C)(OC)CC(C)C(=O)C(C)C2N(CC3CCN(C(=O)c4cnc5ccccc5c4)C3)C(=O)OC12C (stereo not shown) [11.17] | >64.00 | 2 (≈ 2.35 µM) | 8 (≈ 9.4 µM) | 4 (≈ 4.7 µM) | <0.06 |
| CCC1OC(=O)C(C)C(=O)C(C)C(OC2OC(C)CC(N(C)C)C2O)C(C)(OC)CC(C)C(=O)C(C)C2N(CC3CCN(C(=O)c4ccc5ncccc5c4)C3)C(=O)OC12C (stereo not shown) [11.18] | >64.00 | 2 (≈ 2.35 µM) | 8 (≈ 9.4 µM) | 2 (≈ 2.35 µM) | <0.06 |
| CCC1OC(=O)C(C)C(=O)C(C)C(OC2OC(C)CC(N(C)C)C2O)C(C)(OC)CC(C)C(=O)C(C)C2N(CC3CCCN3Cc3cccc(OC)n3)C(=O)OC12C (stereo not shown) [12.01] | >64.00 | 1 (≈ 1.22 µM) | 2 (≈ 2.45 µM) | 8 (≈ 9.79 µM) | <0.06 |
| CCC1OC(=O)C(C)C(=O)C(C)C(OC2OC(C)CC(N(C)C)C2O)C(C)(OC)CC(C)C(=O)C(C)C2N(CC3CCCN3Cc3cccnc3OC)C(=O)OC12C (stereo not shown) [12.02] | >64.00 | 8 (≈ 9.79 µM) | 8 (≈ 9.79 µM) | 16 (≈ 19.6 µM) | <0.06 |
